Test results as given in ChEMBL document CHEMBL1201862, “PubChem BioAssay data set” (2004).
Active and inactive are the calls of the source.

Assays:
Streptokinase A = biological target: T1, Streptokinase A (Streptococcus pyogenes serotype M1, UniProt P10520); assay: viability-normalized secreted streptokinase activity reduction – plasminogen activation absorbance, OD405, dose response (AID 1914); format: functional, Streptococcus pyogenes M1 GAS;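 further: secreted streptokinase activity via plasminogen activation per viability signal from cell pellet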
T1 sequence (P10520 whole entry): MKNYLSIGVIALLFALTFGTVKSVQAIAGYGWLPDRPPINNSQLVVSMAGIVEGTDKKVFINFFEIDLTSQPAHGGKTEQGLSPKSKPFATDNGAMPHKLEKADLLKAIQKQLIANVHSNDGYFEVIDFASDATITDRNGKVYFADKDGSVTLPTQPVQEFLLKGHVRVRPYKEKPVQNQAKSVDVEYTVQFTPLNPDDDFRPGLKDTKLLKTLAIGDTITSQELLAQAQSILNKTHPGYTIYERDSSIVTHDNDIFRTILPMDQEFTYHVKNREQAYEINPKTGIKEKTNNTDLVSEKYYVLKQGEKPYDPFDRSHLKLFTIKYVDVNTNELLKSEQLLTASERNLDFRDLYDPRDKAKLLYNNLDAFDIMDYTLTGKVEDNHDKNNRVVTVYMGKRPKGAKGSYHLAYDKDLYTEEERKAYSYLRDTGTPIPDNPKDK

[1] = Luminescence Cell-Based Dose Retest to Confirm Inhibitors of Cancer Stem Cells. [Related pubchem assays (depositor defined):AID2717, AID2721]; format: functional; details: Homo sapiens
[2] = tested on: Streptococcus sp. 'group A'; assay: Streptococcus pyogenes SK(-)GAS viability under kanamycin – luminescence, BacTiterGlo, confirmation, counter-screen for streptokinase expression inhibitor project, dose response (AID 1900); format: functional, organism-based
[3] = microbe, parasite or virus in culture; format: functional; details: Mycobacterium tuberculosis
Streptococcus = assay: GAS UMAA2166 growth inhibition – luminescence, BacTiterGlo, counter-screen for streptokinase expression inhibitor project, dose response (AID 1915); format: functional, organism-based;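 further: potency for reduction of bacterial viability or growth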
[4] = biological target: Disintegrin and metalloproteinase domain-containing protein 17 (Homo sapiens, UniProt P78536); assay: inhibition of ADAM17 substrate cleavage – biochemical, quenched FRET substrate, counter-screen for ADAM10 exosite inhibitor project, dose response (AID 743253)
fMet-Leu-Phe receptor = biological target: T2, fMet-Leu-Phe receptor (Homo sapiens, UniProt P21462); assay: formyl peptide receptor binders – dose response (AID 519); format: functional
T2 sequence (P21462 whole entry): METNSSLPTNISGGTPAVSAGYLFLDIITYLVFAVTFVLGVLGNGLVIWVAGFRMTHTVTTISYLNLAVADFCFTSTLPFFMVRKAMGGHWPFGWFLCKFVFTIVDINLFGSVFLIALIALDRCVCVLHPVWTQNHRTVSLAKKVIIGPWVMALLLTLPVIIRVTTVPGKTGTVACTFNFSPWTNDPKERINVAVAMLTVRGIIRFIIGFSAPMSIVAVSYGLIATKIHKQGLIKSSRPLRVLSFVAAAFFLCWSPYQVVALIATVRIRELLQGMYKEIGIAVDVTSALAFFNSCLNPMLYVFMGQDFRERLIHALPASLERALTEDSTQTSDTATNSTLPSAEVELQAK

[5] = biological target: Mitogen-activated protein kinase 10 (Homo sapiens, UniProt P53779); assay: Dose response biochemical screening assay for inhibitors of c-Jun N-Terminal Kinase 3 (JNK3). [Related pubchem assays: 746 ]
Cytochrome P450 2D6 = Cytochrome P450 2D6 (Homo sapiens, UniProt P10635);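 further: CYP2D6 member of a cytochrome P450 panel assay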
Cytochrome P450 1A2 = biological target: T3, Cytochrome P450 1A2 (Homo sapiens, UniProt P05177);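 further: PubChem cytochrome P450 panel assay, CYP1A2 panel member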
T3 sequence (P05177 whole entry): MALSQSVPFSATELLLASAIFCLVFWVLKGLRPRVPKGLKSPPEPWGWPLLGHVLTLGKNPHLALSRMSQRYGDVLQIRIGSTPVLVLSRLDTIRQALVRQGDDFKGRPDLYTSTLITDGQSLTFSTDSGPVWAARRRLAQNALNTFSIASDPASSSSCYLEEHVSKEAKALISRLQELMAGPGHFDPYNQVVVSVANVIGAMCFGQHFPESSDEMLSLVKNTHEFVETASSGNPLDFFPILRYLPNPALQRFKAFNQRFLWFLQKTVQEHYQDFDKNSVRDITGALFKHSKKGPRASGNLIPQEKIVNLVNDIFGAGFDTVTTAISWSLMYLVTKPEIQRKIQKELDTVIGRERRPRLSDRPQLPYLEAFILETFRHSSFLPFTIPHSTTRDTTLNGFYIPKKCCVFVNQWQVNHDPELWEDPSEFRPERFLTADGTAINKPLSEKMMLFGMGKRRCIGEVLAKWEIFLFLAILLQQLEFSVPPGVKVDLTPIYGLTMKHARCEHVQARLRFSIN

Kallikrein-7 = Kallikrein-7 (Homo sapiens, UniProt P49862); assay: Fluorescence Intensity-based biochemical primary high throughput dose response assay to identify activators of kallikrein-7 (K7) zymogen.
[6] = biological target: Endoplasmic reticulum aminopeptidase 1 (Homo sapiens, UniProt Q9NZ08); assay: inhibition of human ERAP1 enzyme activity – biochemical, cherry-pick, set 2, plate reader, dose response (AID 743314)
Aminopeptidase N = biological target: T4, Aminopeptidase N (Plasmodium falciparum FcB1/Columbia, UniProt O96935); assay: malaria alanyl aminopeptidase activity blockers – biochemical, fluorogenic H-Leu-NHMec substrate, 1536-well (AID 1445); parameters: species or system Plasmodium falciparum 3D7, 3D7
T4 sequence (O96935 whole entry): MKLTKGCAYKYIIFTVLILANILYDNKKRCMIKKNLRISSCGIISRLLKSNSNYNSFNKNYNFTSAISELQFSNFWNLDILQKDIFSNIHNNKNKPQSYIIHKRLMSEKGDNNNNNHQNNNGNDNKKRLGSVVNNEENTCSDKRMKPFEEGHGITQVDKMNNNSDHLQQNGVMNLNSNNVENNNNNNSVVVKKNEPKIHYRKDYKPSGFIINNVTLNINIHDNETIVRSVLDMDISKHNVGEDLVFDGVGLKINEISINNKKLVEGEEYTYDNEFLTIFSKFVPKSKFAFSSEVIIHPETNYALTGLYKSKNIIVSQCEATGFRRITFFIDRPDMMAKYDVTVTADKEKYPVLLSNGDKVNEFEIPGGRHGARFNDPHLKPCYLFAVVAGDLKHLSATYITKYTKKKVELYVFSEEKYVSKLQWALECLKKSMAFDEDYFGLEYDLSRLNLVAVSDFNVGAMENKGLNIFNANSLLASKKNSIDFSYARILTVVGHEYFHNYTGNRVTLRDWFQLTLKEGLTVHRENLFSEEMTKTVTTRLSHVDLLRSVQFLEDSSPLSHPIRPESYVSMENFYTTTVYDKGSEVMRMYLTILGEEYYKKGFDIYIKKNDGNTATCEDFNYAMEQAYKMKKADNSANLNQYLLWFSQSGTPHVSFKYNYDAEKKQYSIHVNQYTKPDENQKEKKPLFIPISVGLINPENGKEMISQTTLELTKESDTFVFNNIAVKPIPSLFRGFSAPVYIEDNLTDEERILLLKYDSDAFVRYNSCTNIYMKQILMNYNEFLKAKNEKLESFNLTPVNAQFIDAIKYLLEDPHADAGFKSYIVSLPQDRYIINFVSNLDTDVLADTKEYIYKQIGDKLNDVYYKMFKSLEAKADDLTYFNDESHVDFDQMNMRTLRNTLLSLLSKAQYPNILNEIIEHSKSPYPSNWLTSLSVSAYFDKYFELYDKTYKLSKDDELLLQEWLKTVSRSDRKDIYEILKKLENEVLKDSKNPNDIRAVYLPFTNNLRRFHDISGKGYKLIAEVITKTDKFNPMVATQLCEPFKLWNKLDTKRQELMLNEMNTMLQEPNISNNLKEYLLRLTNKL

cells = details: HEK293

Chain of Disintegrin and metalloproteinase domain-containing protein 17 (P78536 whole entry, the tested form may be a part): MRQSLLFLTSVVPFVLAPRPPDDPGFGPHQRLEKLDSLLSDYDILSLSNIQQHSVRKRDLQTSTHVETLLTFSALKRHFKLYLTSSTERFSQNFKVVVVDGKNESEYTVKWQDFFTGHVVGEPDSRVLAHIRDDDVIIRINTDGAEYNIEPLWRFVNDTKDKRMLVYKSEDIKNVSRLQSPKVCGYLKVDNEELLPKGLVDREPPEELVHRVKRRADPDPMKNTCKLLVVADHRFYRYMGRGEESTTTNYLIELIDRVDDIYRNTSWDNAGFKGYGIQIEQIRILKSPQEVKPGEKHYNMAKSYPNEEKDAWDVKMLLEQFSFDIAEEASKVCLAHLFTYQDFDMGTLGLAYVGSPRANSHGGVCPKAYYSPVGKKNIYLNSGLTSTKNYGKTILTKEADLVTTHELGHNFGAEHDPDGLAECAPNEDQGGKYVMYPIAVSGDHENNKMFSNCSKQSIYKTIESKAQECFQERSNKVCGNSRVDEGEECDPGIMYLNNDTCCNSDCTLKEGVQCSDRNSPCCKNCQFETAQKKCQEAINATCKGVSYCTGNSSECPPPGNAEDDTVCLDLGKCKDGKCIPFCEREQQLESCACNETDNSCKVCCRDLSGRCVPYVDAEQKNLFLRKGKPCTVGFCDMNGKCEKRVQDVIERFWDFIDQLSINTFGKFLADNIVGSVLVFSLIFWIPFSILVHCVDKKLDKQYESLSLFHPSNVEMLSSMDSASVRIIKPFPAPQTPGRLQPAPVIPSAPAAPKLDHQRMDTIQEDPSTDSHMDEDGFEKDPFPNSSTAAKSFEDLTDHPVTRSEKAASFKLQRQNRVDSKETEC
Chain of Kallikrein-7 (P49862 whole entry): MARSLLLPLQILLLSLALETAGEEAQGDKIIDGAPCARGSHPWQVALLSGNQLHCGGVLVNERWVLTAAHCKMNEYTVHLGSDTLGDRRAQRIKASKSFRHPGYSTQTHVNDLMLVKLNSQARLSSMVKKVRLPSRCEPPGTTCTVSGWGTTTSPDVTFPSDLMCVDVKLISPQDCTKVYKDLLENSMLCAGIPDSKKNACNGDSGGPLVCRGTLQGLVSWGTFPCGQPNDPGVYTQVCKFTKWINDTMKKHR
Chain of Mitogen-activated protein kinase 10 (P53779 whole entry): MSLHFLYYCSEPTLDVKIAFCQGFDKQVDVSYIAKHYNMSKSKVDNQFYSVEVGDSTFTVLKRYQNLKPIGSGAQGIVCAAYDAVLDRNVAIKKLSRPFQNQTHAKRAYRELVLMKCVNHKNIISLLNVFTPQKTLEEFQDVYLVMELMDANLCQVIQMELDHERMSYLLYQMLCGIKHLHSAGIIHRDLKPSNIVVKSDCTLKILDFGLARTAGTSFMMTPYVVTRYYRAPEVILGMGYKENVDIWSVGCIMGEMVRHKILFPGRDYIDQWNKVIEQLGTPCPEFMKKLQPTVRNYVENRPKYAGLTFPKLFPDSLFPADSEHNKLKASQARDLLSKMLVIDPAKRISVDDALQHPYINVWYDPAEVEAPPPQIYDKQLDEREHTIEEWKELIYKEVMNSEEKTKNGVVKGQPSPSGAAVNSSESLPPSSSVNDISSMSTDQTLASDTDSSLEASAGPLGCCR
Chain of Cytochrome P450 2D6 (P10635 whole entry): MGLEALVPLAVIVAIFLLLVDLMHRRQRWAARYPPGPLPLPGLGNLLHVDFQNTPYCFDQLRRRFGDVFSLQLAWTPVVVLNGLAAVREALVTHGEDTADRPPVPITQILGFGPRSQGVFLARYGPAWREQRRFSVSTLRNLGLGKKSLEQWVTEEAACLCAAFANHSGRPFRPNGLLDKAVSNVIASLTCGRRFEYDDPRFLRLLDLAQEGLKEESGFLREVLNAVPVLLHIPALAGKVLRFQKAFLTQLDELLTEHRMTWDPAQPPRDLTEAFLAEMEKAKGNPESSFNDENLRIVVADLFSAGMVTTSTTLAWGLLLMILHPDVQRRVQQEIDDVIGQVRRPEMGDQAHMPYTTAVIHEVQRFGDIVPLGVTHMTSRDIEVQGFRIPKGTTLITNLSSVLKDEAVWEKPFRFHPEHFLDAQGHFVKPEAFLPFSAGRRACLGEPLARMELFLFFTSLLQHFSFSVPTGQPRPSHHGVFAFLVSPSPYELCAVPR
Chain of Endoplasmic reticulum aminopeptidase 1 (Q9NZ08 whole entry): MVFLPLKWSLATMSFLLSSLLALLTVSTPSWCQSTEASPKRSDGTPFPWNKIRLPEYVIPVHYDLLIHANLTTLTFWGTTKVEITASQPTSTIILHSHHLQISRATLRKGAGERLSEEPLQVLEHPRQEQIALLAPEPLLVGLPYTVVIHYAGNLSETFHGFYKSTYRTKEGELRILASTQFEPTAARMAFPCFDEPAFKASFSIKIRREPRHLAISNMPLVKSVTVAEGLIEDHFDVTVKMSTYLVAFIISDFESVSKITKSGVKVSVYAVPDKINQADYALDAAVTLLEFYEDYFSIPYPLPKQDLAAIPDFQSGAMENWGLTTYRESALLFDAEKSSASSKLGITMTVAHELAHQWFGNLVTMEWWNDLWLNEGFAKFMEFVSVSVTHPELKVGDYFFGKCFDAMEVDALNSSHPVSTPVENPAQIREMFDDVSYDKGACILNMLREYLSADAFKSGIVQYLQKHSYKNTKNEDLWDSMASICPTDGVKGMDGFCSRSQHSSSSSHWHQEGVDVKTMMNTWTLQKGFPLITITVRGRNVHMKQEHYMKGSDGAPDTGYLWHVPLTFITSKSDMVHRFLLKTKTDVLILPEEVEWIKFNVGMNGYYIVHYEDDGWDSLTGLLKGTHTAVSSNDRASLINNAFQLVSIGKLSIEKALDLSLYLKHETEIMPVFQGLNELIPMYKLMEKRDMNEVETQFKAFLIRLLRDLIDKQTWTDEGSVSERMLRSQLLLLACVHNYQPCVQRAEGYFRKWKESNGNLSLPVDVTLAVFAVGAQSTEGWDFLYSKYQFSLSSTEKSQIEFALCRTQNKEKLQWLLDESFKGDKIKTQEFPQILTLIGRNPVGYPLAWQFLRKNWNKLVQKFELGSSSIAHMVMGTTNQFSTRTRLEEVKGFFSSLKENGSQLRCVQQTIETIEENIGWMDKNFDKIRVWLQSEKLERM

O=C(Nc1ccc(OCC(F)(F)C(F)F)c(C(F)(F)F)c1)c1ccc(Cl)cc1
EC50 (Streptokinase A): 1.77 µM (active)
AC50 [1]: 3.52 µM (active)
EC50 [2]: 5.77 µM (active)
CC50 [3]: 13.4 µM (active)
EC50 (Streptococcus): 7.49 µM (active)
IC50 [4]: > 69.5 µM (inactive)

Cc1ccc(C(=O)C2=C(O)C(=O)N(CCCn3ccnc3)C2c2ccc(OC(C)C)cc2)o1 (stereo not given)
Ki (fMet-Leu-Phe receptor): > 66.7 µM (inactive)
IC50 [5]: 37.4 µM (not active)
AC50 (Cytochrome P450 2D6): 12.6 µM (inconclusive)
AC50 (Cytochrome P450 1A2): 39.8 µM (inconclusive)

O=c1c(-c2ccccc2)coc2c(CN3CCOCC3)c(O)ccc12
EC50 (Kallikrein-7): 12.4 µM (inactive)

Cc1cc(=O)oc2c(CN3CCN(C)CC3)c(O)c(Cl)cc12
AC50 [6]: 6.77 µM (active)
IC50 (Aminopeptidase N): 33.6 µM (active)

CCCOc1c(Br)cc(C2C3=C(CCCC3=O)N(C)C3=C2C(=O)CCC3)cc1OC
AC50 (cells): > 52 µM (inactive)

Cc1nn2c(O)c3c(nc2c1-c1ccccc1)CCC3
Ki (fMet-Leu-Phe receptor): 20.4 µM (inactive)
